Source: patent publication US6448268B1, “Aryl-{4-fluoro-4-[(2-pyridin-2-yl-ethylamino)-methyl]-piperidin-1-yl}-methanone derivatives as 5-ht1 receptor antagonists” (Pierre Fabre Medicament, priority 1998, dated 2002)
Structures can show the parent of a compound that is named as a salt.

What was measured:
5-HT1A receptor [1] = molecular target: T1, 5-HT1A receptor (Rattus norvegicus, UniProt P19327); assay: Affinity for 5-HT1A receptors by displacement of (3H)8-OH-DPAT; type: binding; design: from tissue; host or cells: rat cerebral cortex membrane homogenate; conditions: for Ki: rat cerebral cortex, (3H)8-OH-DPAT displacement, read-out: pKi 5-HT1A (converted); for Selectivity 5-HT1A/D2: ratio of the affinity constants (Ki) D2/Ki (5-HT1A)
T1 sequence (P19327 1-422): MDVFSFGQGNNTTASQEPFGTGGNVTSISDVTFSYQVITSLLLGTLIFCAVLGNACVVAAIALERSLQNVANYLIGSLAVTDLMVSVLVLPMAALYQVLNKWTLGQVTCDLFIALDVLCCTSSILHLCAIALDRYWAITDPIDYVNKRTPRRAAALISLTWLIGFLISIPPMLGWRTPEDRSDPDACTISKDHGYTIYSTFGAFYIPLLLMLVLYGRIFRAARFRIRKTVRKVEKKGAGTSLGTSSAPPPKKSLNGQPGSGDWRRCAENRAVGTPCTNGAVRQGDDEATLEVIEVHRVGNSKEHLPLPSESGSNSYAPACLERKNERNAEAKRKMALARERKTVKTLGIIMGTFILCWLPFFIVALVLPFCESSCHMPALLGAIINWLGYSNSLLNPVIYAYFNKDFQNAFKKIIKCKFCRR
Procedure: 1—Measurement of the Affinity of the Compounds of the Invention for the 5-HT1A Receptors
The in vitro affinity of the compounds of the invention for 5-HT1A receptors was determined by measuring the displacement of (^3H)8-OH-DPAT (TRK 850; 160-240 Ci/mmol).
The study of the binding to the 5-HT1A receptor is carried out as described by Sleight and Peroutka (Naunyn-Schmiedeberg's Arch. Pharmaco., 1991, 343, 106). Rat cerebral cortices are used for these experiments. After thawing the brain in 50 mmol Tris-HCl buffer pH=7.40 at 25° C., the cerebral cortex is removed and homogenized in 20 volumes of buffer maintained at 4°C. The homogenate is centrifuged at 39,000×g for 10 minutes and the centrifugation pellet is suspended in the same volume of buffer and centrifuged again. After resuspending under the same conditions, the homogenate is incubated for 10 minutes at 37° C. and then centrifuged again. The final pellet is suspended in cold 50 mmol Tris-HCl reaction buffer, pH=7.40 at 25° C., containing 10 mmol of pargyline, 4 mmol of CaCl2 and 0.10% ascorbic acid. The final concentration of tissue in the incubation medium is 10 mg/tube.
The reaction tubes contain 0.10 ml of (^3H)8-OH-DPAT ([…]), 0.10 ml of test product 6-7 concentrations and 0.80 ml of tissue. The nonspecific binding is defined using 10 mmol of 5-HT. The reaction tubes are incubated at 23° C. for 30 minutes and their contents are then rapidly filtered under vacuum through Whatman GF/B filters and the tubes are rinsed with twice 5 ml of 50 mmol Tris-HCl buffer, pH=7.4 at 25° C. The radioactivity collected on the filter is analyzed by liquid scintillation by adding 4 ml of liquid scintillant (Emulsifier Safe, Packard). All the experiments are carried out in triplicate.
The inhibition constants (Ki) of the products of the invention are estimated from the displacement experiments using the nonlinear regression program RADLIG version 4 from EBDA (Equilibrium Binding Data Analysis) (Biosoft, Cambridge, UK, McPherson, 1985). The dissociation constants of the radioactive ligands used in the calculations are […] for (^3H)8-OH-DPAT and 0.036 mmol for (^3H)YM-09151-2. The pKi (−logKi) values are given in the form of the mean±SEM of at least 3 experiments.

5-HT1A receptor [2] = molecular target: T1, 5-HT1A receptor; assay: 5-HT1A receptor agonist activity in vivo: lower lip retraction (LLR) after oral administration; design: Male Sprague Dawley rats (ICO:OFAD [IOPS], Iffa Credo, France); from tissue; host or cells: whole animal, male Sprague Dawley rats, oral dosing; conditions: rats, observed t55 to t65 min, doses as base weight, read-out: LLR p.o. ED50
From the text: 3—Evaluation of the 5-HT1A Receptor Agonist Activity of the Compounds of the Invention In Vivo.
Male Sprague Dawley rats (ICO:OFAD [IOPS], Iffa Credo, France), weighing 160-180 g on arrival and 180-200 g at the start of the tests, are used. The animals are placed in quarantine for 4 to 8 days with free access to standardized laboratory food, before being used in the experiments. The animals are housed individually in plastic cages on cage holders (28 cm×21 cm×18 cm) with a grille floor (RC Iffa Credo), 24 hours before the tests. By means of an automatic dispenser, water filtered through a 0.22 μm filter is freely available. The quarantine area and the experiment laboratory are air conditioned (temperature: 22±1° C.; relative humidity: 55±5%) and illuminated from 7 a.m. to 7 p.m. All the rats are treated according to the ethics for laboratory animals (Guide for the Care and Use of Laboratory Animals, U.S. Department of Agriculture, Public Health Service, National Institutes of Health publication No. 85-23, Revised 1985) and the protocol (No. 15) is carried out in accordance with the recommendations of the local research animals ethics committee. […]
The behavior of the animal is observed for a period of 10 minutes each, centered at t60 minutes, after oral administration. […] The products are administered in a volume of 10 ml/kg and the doses are expressed as base weight. […]

melting point [°C]	Ki (5-HT1A receptor [1]) [nM]	Selectivity 5-HT1A/D2 (5-HT1A receptor [1])	ED50 (5-HT1A receptor [2]) [mg/kg]	SMILES
172 to 174	–	–	–	O=C(c1ccc(F)c(Cl)c1)N1CCC(F)(CNCCc2ccccn2)CC1 (as salt: oxalate) [Example 1, (3-Chloro-4-fluorophenyl){4-fluoro-4-[(2-pyrid-2-ylethylamino)methyl]-l-piperidyl}methanone]
192 to 194	–	–	–	O=C(c1ccc(Cl)c(Cl)c1)N1CCC(F)(CNCCc2ccccn2)CC1 (as salt: oxalate) [Example 2, (3,4-Dichlorophenyl){4-fluoro-4-[(2-pyrid-2-ylethylamino)methyl]-1-piperidyl}methanone]
–	0.155	4 266	0.31	O=C(c1ccc(F)c(Cl)c1)N1CCC(F)(CNCCc2ccccn2)CC1 [Example 1, (3-Chloro-4-fluorophenyl){4-fluoro-4-[(2-pyrid-2-ylethylamino)methyl]-l-piperidyl}methanone]
–	0.38	1 318	0.31	O=C(c1ccc(Cl)c(Cl)c1)N1CCC(F)(CNCCc2ccccn2)CC1 [Example 2, (3,4-Dichlorophenyl){4-fluoro-4-[(2-pyrid-2-ylethylamino)methyl]-1-piperidyl}methanone]
